Measurements as given in patent US20230129935A1, “SYSTEM, PRODUCT AND METHOD FOR MAINTAINING THE VAGINAL MICROBIOME” (VAGINAL BIOME SCIENCE, INC., priority 2021, published 2023).

Key:
HIV = assay: Killing of HIV and other pathogens by lubricant acidified with lactic acid; settings: vaginal lubricant including substantially racemic lactic acid, matched to vaginal acidity
[1] = tested on: herpes simplex virus (HSV-2); settings: after a single exposure; cited from earlier work

Compound | killing of HIV and many other pathogens (HIV) | susceptibility to herpes simplex virus (HSV-2) [1]
CC(O)C(=O)O (racemic) [lactic acid] | kills HIV and many other pathogens | –
polyethylene glycol [polyethylene glycol (PEG-8)] | – | markedly increased susceptibility
